How the values were obtained:
[1] = tested on: recombinant human anti-SARS-CoV antibody 03-018; type: binding; design: Binding of antibody 03-018 to linear peptides of the N protein of SARS-CoV Urbani / Binding of antibody 03-018 to looped/cyclic peptides of the N protein of SARS-CoV Urbani: unit not given here
[2] = tested on: antibodies in sera from SARS patients (sera 1a, 1b, 2, 6, 37, 62, London, SARS-yellow, SARS-green); type: binding, human; design: Binding of serum 6 to linear peptides of protein X1 of SARS-CoV Urbani / Binding of serum 37 to linear peptides of protein X1 of SARS-CoV Urbani / Binding of serum 6 to looped/cyclic peptide (PEPSCAN-ELISA) / Binding of serum 37 to looped/cyclic peptide (PEPSCAN-ELISA) / Binding of serum 37 to looped/cyclic peptides of protein X1 of SARS-CoV Urbani / Binding of serum 6 to linear peptides of protein X2 / Binding of serum 37 to linear peptides of protein X2 / Binding of serum 37 to looped/cyclic peptides of protein X2 of SARS-CoV Urbani / Binding of serum 6 to linear peptides of protein M of SARS-CoV Urbani / Binding of serum 37 to linear peptides of protein M of SARS-CoV Urbani / Binding of serum 6 to looped/cyclic peptides of protein M of SARS-CoV Urbani / Binding of serum 37 to looped/cyclic peptides of protein M of SARS-CoV Urbani / Binding of serum 6 to linear peptides of protein X3 of SARS-CoV Urbani / Binding of serum 37 to linear peptides of protein X3 of SARS-CoV Urbani / Binding of serum 37 to looped/cyclic peptides of protein X3 of SARS-CoV Urbani / Binding of serum 6 to linear peptides of protein X4 of SARS-CoV Urbani / Binding of serum 37 to linear peptides of protein X4 of SARS-CoV Urbani / Binding of serum 37 to looped/cyclic peptides of protein X4 of SARS-CoV Urbani / Binding of serum 6 to linear peptides of protein X5 of SARS-CoV Urbani / Binding of serum 37 to linear peptides of protein X5 of SARS-CoV Urbani / Binding of serum 37 to looped/cyclic peptides of protein X5 of SARS-CoV Urbani / Binding of serum 6 to linear peptides of protein N of SARS-CoV Urbani / Binding of serum 37 to linear peptides of protein N of SARS-CoV Urbani / Binding of serum 6 to linear peptide (PEPSCAN-ELISA) / Binding of serum 1a to looped/cyclic peptides of protein N of SARS-CoV Urbani / Binding of serum 1b to looped/cyclic peptides of protein N of SARS-CoV Urbani / Binding of serum 2 to looped/cyclic peptides of protein N of SARS-CoV Urbani / Binding of serum 6 to looped/cyclic peptides of protein N of SARS-CoV Urbani / Binding of serum 37 to looped/cyclic peptides of protein N of SARS-CoV Urbani / Binding of serum 62 to looped/cyclic peptides of protein N of SARS-CoV Urbani / Binding of serum London to looped/cyclic peptides of protein N of SARS-CoV Urbani / Binding of serum SARS-green to looped/cyclic peptides of protein N of SARS-CoV Urbani: unit not given here
[3] = tested on: control sera (pooled serum of ten healthy LUMC hospital workers; commercial negative donor pooled serum from the Dutch bloodbank); type: binding, human; design: Binding of Control serum LUMC to linear peptides / Binding of Control serum Blood-bank to linear peptides / Binding of Control serum LUMC to looped peptides / Binding of Control Serum Blood-Bank to Looped peptides / Binding of Control serum LUMC to linear peptides of the protein M of SARS-CoV Urbani / Binding of Control serum Blood-bank to linear peptides of the protein M of SARS-CoV Urbani / Binding of Control serum LUMC to looped peptides of the protein M of SARS-CoV Urbani / Binding of Control Serum Blood-Bank to Looped peptides of the protein M of SARS-CoV Urbani: unit not given here
[4] = tested on: rabbit serum obtained by immunizing a rabbit with the SARS-CoV strain Frankfurt 1; type: binding; design: Binding of a rabbit serum to linear peptides / Binding of a rabbit serum to looped peptides / Rabbit serum linear peptides / Rabbit serum looped peptides / Binding of a rabbit serum to linear peptides of protein N of SARS-CoV Urbani (Rabbit serum linear peptides) / Binding of a rabbit serum to looped/cyclic peptides of protein N of SARS-CoV Urbani (Rabbit serum looped peptides): unit not given here

Sequence | Binding of antibody 03-018 to linear peptides of the N protein of SARS-CoV Urbani [1] | Binding of antibody 03-018 to looped/cyclic peptides of the N protein of SARS-CoV Urbani [1] | Binding of serum 1a to looped/cyclic peptides of protein N of SARS-CoV Urbani [2] | Binding of serum 1b to looped/cyclic peptides of protein N of SARS-CoV Urbani [2] | Binding of serum 2 to looped/cyclic peptides of protein N of SARS-CoV Urbani [2] | Binding of serum 6 to looped/cyclic peptides of protein N of SARS-CoV Urbani [2] | Binding of serum 37 to looped/cyclic peptides of protein N of SARS-CoV Urbani [2] | Binding of serum 62 to looped/cyclic peptides of protein N of SARS-CoV Urbani [2] | Binding of serum London to looped/cyclic peptides of protein N of SARS-CoV Urbani [2] | Binding of serum SARS-green to looped/cyclic peptides of protein N of SARS-CoV Urbani [2] | Binding of serum SARS-yellow to looped/cyclic peptides of protein N of SARS-CoV Urbani [2] | Binding of Control Serum Blood-Bank to Looped peptides [3] | Binding of Control serum Blood-bank to linear peptides [3] | Binding of Control serum LUMC to linear peptides [3] | Binding of Control serum LUMC to looped peptides [3] | Binding of a rabbit serum to linear peptides of protein N of SARS-CoV Urbani (Rabbit serum linear peptides) [4] | Binding of a rabbit serum to looped/cyclic peptides of protein N of SARS-CoV Urbani (Rabbit serum looped peptides) [4] | further results
ALLLLDRLNQLESKV | 0.1 | 0.3 | 0.4 | 0.3 | 0.5 | 0.3 | 1.0 | 0.9 | 0.5 | 0.7 | 0.5 | 0.8 | 0.8 | 0.7 | 0.8 | 0.1 | 0.4 | Binding of serum 1a to linear peptide (PEPSCAN-ELISA) [2]: 0.2; Binding of serum 1b to linear peptide (PEPSCAN-ELISA) [2]: 0.1; Binding of serum 2 to linear peptide (PEPSCAN-ELISA) [2]: 0.2; Binding of serum 6 to linear peptide (PEPSCAN-ELISA) [2]: 0.1; Binding of serum 37 to linear peptide (PEPSCAN-ELISA) [2]: 0.7; Binding of serum 62 to linear peptide (PEPSCAN-ELISA) [2]: 0.4; Binding of serum London to linear peptide (PEPSCAN-ELISA) [2]: 0.6; Binding of serum SARS-green to linear peptide (PEPSCAN-ELISA) [2]: 0.2; Binding of serum SARS-yellow to linear peptide (PEPSCAN-ELISA) [2]: 0.5
ALNTPKDHIGTRNPN | 0.1 | 0.2 | 0.4 | 0.3 | 0.5 | 0.3 | 0.5 | 0.5 | 0.3 | 0.5 | 0.0 | 0.5 | 0.8 | 0.6 | 0.4 | 0.2 | 0.2 | Binding of serum 1a to linear peptides of protein N of SARS-CoV Urbani [2]: 0.3; Binding of serum 1b to linear peptides of protein N of SARS-CoV Urbani [2]: 0.1; Binding of serum 2 to linear peptides of protein N of SARS-CoV Urbani [2]: 0.3; Binding of serum 6 to linear peptides of protein N of SARS-CoV Urbani [2]: 0.2; Binding of serum 37 to linear peptides of protein N of SARS-CoV Urbani [2]: 0.7; Binding of serum 62 to linear peptides of protein N of SARS-CoV Urbani [2]: 0.6; Binding of serum London to linear peptides of protein N of SARS-CoV Urbani [2]: 0.5; Binding of serum SARS-green to linear peptides of protein N of SARS-CoV Urbani [2]: 0.4; Binding of serum SARS-yellow to linear peptides of protein N of SARS-CoV Urbani [2]: 0.5

Reference: patent US20070128217A1 (priority 2003, published 2007)
